Reference: the NIST ThermoML archive (doi:10.1021/acs.jced.7b00121)
± gives the expanded uncertainty stated by the source.

Conditions: 101.33 kPa, Liquid; for viscosity: Falling or rolling sphere viscometry; for mass density: Vibrating tube method

CCCCCCCCCC [decane]
Conditions | mass density [kg/m3] | viscosity [mPa·s]
288.15 K | 733.57 ± 1.5 | 0.987 ± 0.099
293.15 K | 729.81 ± 1.5 | 0.915 ± 0.092
298.15 K | 726.05 ± 1.5 | 0.852 ± 0.085
303.15 K | 722.28 ± 1.4 | 0.797 ± 0.08
308.15 K | 718.49 ± 1.4 | 0.747 ± 0.075
313.15 K | 714.69 ± 1.4 | 0.703 ± 0.07
318.15 K | 710.88 ± 1.4 | 0.663 ± 0.066
323.15 K | 707.06 ± 1.4 | 0.627 ± 0.063
328.15 K | 703.21 ± 1.4 | 0.593 ± 0.059
333.15 K | 699.36 ± 1.4 | 0.563 ± 0.056
338.15 K | 695.48 ± 1.4 | 0.536 ± 0.054
343.15 K | 691.59 ± 1.4 | 0.512 ± 0.051

CCCCCCC [heptane]
Conditions | mass density [kg/m3] | viscosity [mPa·s]
288.15 K | 688.13 ± 1.4 | 0.432 ± 0.043
293.15 K | 683.93 ± 1.4 | 0.412 ± 0.041
298.15 K | 679.71 ± 1.4 | 0.393 ± 0.039
303.15 K | 675.47 ± 1.4 | 0.377 ± 0.038
308.15 K | 671.2 ± 1.4 | 0.362 ± 0.036
313.15 K | 666.89 ± 1.4 | 0.348 ± 0.035
318.15 K | 662.55 ± 1.4 | 0.335 ± 0.034
323.15 K | 658.19 ± 1.3 | 0.324 ± 0.033
328.15 K | 653.79 ± 1.3 | 0.312 ± 0.031
333.15 K | 649.33 ± 1.3 | 0.302 ± 0.03
338.15 K | 644.84 ± 1.3 | 0.293 ± 0.029
343.15 K | 640.29 ± 1.3 | 0.284 ± 0.029

CCCCCCCCC [nonane]
Conditions | mass density [kg/m3] | viscosity [mPa·s]
288.15 K | 721.64 ± 1.4 | 0.763 ± 0.077
293.15 K | 717.78 ± 1.4 | 0.713 ± 0.072
298.15 K | 713.91 ± 1.4 | 0.669 ± 0.067
303.15 K | 710.03 ± 1.4 | 0.63 ± 0.063
308.15 K | 706.12 ± 1.4 | 0.594 ± 0.06
313.15 K | 702.2 ± 1.4 | 0.564 ± 0.057
318.15 K | 698.26 ± 1.4 | 0.535 ± 0.054
323.15 K | 694.3 ± 1.4 | 0.509 ± 0.051
328.15 K | 690.33 ± 1.4 | 0.485 ± 0.049
333.15 K | 686.34 ± 1.4 | 0.462 ± 0.046
338.15 K | 682.31 ± 1.4 | 0.443 ± 0.044
343.15 K | 678.26 ± 1.4 | 0.425 ± 0.043

CCCCCCCC [octane]
Conditions | mass density [kg/m3] | viscosity [mPa·s]
288.15 K | 706.54 ± 1.4 | 0.585 ± 0.059
293.15 K | 702.53 ± 1.4 | 0.552 ± 0.055
298.15 K | 698.51 ± 1.4 | 0.523 ± 0.052
303.15 K | 694.48 ± 1.4 | 0.496 ± 0.05
308.15 K | 690.42 ± 1.4 | 0.473 ± 0.047
313.15 K | 686.34 ± 1.4 | 0.45 ± 0.045
318.15 K | 682.24 ± 1.4 | 0.431 ± 0.043
323.15 K | 678.11 ± 1.4 | 0.412 ± 0.041
328.15 K | 673.95 ± 1.4 | 0.395 ± 0.04
333.15 K | 669.77 ± 1.4 | 0.379 ± 0.038
338.15 K | 665.55 ± 1.4 | 0.365 ± 0.037
343.15 K | 661.28 ± 1.3 | 0.352 ± 0.035
